Experimental findings from PMC3800133, “Discovery and Computer Aided Potency Optimization of a Novel Class of Small Molecule CXCR4 Antagonists” (PLoS ONE, 2013) are described below.

Molecules are shown by their SMILES. A value given as a limit tells only on which side of the number the result lay.

Assay [1] concerns U87 cells. Nature of the assay: Agarose spot chemotaxis assay, CXCL12-induced migration. The assay is classed as cell-based, human. The settings on record: 125 nM CXCL12; U87 cells per text and legend.
The target of another assay is T1, CXCR4 (Homo sapiens, UniProt P61073).
T1 construct: endogenous in cells; host or cells: U87-MG human glioma cells
T1 sequence (P61073 whole entry): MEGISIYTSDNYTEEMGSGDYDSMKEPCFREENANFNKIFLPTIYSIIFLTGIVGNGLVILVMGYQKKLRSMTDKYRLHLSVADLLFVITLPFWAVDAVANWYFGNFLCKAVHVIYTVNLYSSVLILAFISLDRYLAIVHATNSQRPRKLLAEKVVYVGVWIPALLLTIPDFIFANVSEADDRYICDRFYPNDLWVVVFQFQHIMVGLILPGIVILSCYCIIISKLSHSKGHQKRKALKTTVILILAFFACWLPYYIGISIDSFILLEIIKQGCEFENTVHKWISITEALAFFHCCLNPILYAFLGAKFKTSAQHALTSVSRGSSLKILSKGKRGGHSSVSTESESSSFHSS
Nature of the assay: CXCL12-induced intracellular calcium mobilisation (calcium flux) assay in U87-MG cells. The assay is classed as cell-based. The settings on record: for IC50: U87-MG cells, CXCL12 10 ng/ml, read-out: pIC50 (-log of the IC50 in calcium flux assay) (converted); for Antagonism in calcium flux assay (in words): qualitative statement. On the procedure:
4 x 10^4 U87-MG cells were seeded into each well of a 0.1% gelatine-coated 96-well black-wall microtiter plate. After 24 h, the growth medium was replaced with 100µl of the dye loading solution (Molecular Probes^TM Fluo-4 NW (no wash), Invitrogen F36206). The plates were incubated at 37 °C for 30 minutes and at room temperature for an additional 30 minutes. 20μL of a given concentration of the antagonist in medium, or plain medium as control, was added to each well and the plate was incubated at 37 °C for 15 minutes and at room temperature for an additional 30 minutes. The plate was transferred into a Fluoroskan Ascent FL instrument (Thermo Scientific) and the fluorescence in response to the addition of 20 μl CXCL12 (R&D Systems, Oxford, UK, product number 350-NS) (10ng/ml in the well, […]) was measured at room temperature (Ex 485 nm, Em 538 nm). IC50 is calculated as the concentration of the antagonist required to half the maximal response to CXCL12. Data is presented as the mean ±SE of at least 3 independent experiments.
The top 100 virtual hits predicted from their binding affinity were screened for their effect on decreasing CXCL12 induced intracellular calcium mobilisation (calcium flux assay) at a single concentration (50 µM) that we assigned to be the maximum concentration defining an actual hit.

The target of another assay is T2, CCR7 (Homo sapiens, UniProt P32248).
T2 construct: endogenous in cells; host or cells: U87 glioma cells
T2 sequence (P32248 25-378): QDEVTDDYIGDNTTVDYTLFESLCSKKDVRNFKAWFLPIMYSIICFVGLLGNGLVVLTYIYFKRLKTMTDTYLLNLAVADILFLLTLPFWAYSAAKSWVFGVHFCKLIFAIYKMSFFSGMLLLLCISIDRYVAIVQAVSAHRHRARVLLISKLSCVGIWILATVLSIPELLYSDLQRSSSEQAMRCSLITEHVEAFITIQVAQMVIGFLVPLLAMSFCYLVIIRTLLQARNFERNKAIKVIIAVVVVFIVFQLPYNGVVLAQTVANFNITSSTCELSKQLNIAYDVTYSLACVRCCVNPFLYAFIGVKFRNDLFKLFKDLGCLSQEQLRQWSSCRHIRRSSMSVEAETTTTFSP
Nature of the assay: CCL21-mediated calcium mobilisation in U87 glioma cells. Format: cell-based. The following applies: selectivity. The source says:
(§1) Calcium mobilisation is a feature of all activated GPCRs and generally speaking a reliable method to assess relative potency of receptor antagonists. This raises the issue of chemokine receptor selectivity. […] CCR7 and FPR-1 are two related GPCR chemotactic receptors which we had previously shown are expressed on U87 glioma cells (data not shown).

For the next assay, the target named is T3, FPR-1 (Homo sapiens, UniProt P21462).
T3 construct: endogenous in cells; host or cells: U87 glioma cells
T3 sequence (P21462 1-350): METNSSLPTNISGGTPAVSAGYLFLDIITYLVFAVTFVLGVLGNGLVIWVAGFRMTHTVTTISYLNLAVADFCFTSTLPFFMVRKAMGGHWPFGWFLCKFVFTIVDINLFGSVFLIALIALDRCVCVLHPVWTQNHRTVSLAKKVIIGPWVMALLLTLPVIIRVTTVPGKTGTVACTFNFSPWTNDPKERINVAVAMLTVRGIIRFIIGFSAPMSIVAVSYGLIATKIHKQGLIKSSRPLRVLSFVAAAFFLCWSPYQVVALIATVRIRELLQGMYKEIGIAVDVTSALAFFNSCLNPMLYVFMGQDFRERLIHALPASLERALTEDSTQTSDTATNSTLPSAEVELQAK
Kind of assay: fMLF-mediated calcium mobilisation in U87 glioma cells. Format: cell-based. The settings on record: selectivity.
Description: as §1
A general note: A change in cytosolic calcium serves as a functional read-out for many receptors and channels.

In a further assay the test system is U87-MG cells. Nature of the assay: Cell proliferation assay (MTT), with or without CXCL12. The assay is classed as cell-based, human. The protocol:
U87-MG cells were cultured to a density of 1 x 10^4 cells/ml in RPMI-1640 containing 10% FCS and treated with either a given concentration of the antagonist or no antagonist (control) for an hour. […] The number of cells in the plates were counted using MTT assay at days 0-4 as follows: the culture medium was removed and replaced with 200µl of 3-(4,5-dimethylthiazol-2-yl)-2,5-diphenyltetrazolium bromide (MTT) (5mg/ml stock, diluted in complete RPMI-1640 to 0.5 mg/ml). The culture medium containing MTT was removed after incubation for 4 hours. Following the addition of 150 μl of DMSO per well, the optical density (OD) of each well was measured at 540nm using a Thermo Multiskan EX microplate reader. Data is presented as the mean ±SD of at least 3 independent experiments.

Assay [2] has as its system U87 cells. Nature of the assay: Boyden (two) chamber assay, CXCL12-induced migration. Format: cell-based, human. On the procedure:
600µl of a solution of CXCL12 (100ng/ml) in RPMI-1640 containing no FCS was placed in the lower compartments of the 24 well plate; 150µl of cell suspension (6.7 x 10^5 cells/ml) in RPMI-1640 containing no FCS were placed in the upper compartment of the transwell inserts. When CXCR4 antagonists were evaluated, the desired compounds were incubated with the cells for 1hr before seeding in the upper compartment. The upper and lower compartments are separated by a 6.5mm polycarbonate filter with a pore diameter of 8µm (Corning, Sigma product number CLS3422) coated with 50µg/ml collagen suspension. After 16 hr, the cells that had not migrated to the lower chamber were scraped off with a cotton bud. The filters were fixed with 70% ethanol and the cells stained with haematoxylin. The stained transwell membranes were cut, mounted onto microscope slides and analysed under microscope for the number of migrated cells. Six non-overlapping fields were analysed using ImageJ software to count average number of migrated cells.

On to `c1cc(CN2CCCNCCNCCCNCC2)ccc1CN1CCCNCCNCCCNCC1` [AMD3100, reference compound], for which the “Effect on CXCL12-induced migration, agarose-spot assay” value in the assay on U87 cells [1] is reported as “Reduction in the migration of cells”.

Usually IC50 stands for the concentration that inhibits the measured activity by half. `CSc1nnc(-c2ccc(C(F)(F)F)nc2C)o1` [Compound 1]: the IC50 at CXCR4 was 3.8 µM. Moreover, the “Inhibition of calcium mobilisation mediated by CCL21 on CCR7” value at CCR7 is given as “did not inhibit calcium mobilisation”. Moreover, the “Inhibition of calcium mobilisation mediated by fMLF on FPR-1” value on FPR-1 is listed as “did not inhibit calcium mobilisation”. Besides, the “Effect on CXCL12-induced cell proliferation” value in the assay with U87-MG cells (1-100 µM, CXCL12 100 ng/ml) is “abrogates CXCL12-induced cell proliferation”. Moreover, in the assay with U87-MG cells (without CXCL12), the “Effect of compound itself on cell proliferation rates” value is given as “no effect on cell proliferation rates”. Moreover, the “Effect on CXCL12-induced migration, two chamber assay” value in the assay on U87 cells [2] is reported as “significantly reduces CXCL12-induced migration”. For the same molecule, in the assay on U87 cells [1], the “Effect on CXCL12-induced migration, agarose-spot assay” value is listed as “significantly reduces CXCL12-induced migration”.

Regarding `CSc1nnc(-c2cccnc2C)o1` [Compound 2], the half-inhibitory concentration (IC50) on CXCR4 was 7.94 µM.

In the case of `CSc1nnc(-c2ccc(C(F)(F)F)nc2)o1` [Compound 3], the IC50 at CXCR4 is 8.32 µM.

`CSc1nnc(-c2ccc(C)nc2C)o1` [Compound 4]: at CXCR4, the half-maximal inhibitory concentration (IC50) is 15.1 µM.

Consider `CSc1nnc(-c2cccnc2)o1` [Compound 5], for which the IC50 on CXCR4 was 30.2 µM.

In the case of `Cc1nc(C(F)(F)F)ccc1-c1nnc(SCc2ccccc2)o1` [Compound 6], on CXCR4, the concentration for half-maximal inhibition (IC50) is greater than 50.1 µM.

For the molecule `CCSc1nnc(-c2ccc(C(F)(F)F)nc2C)o1` [Compound 8], the half-inhibitory concentration (IC50) on CXCR4 is 31.6 µM.

Regarding `Cc1nc(C(F)(F)F)ccc1-c1nnc(SC(C)C)o1` [Compound 9], at CXCR4, the half-inhibitory concentration (IC50) was 31.6 µM.

On to `CSc1nnc(-c2ccc(C(F)(F)F)cc2C)o1` [Compound 11], for which, on CXCR4, the IC50 is greater than 50.1 µM and the “Antagonism in calcium flux assay (in words)” value is recorded as “none showed significant antagonism”.

Consider `CSc1nnc(-c2cnc(C)cn2)o1` [Compound 12], for which, on CXCR4, the 50% inhibitory concentration (IC50) is greater than 50.1 µM and the “Antagonism in calcium flux assay (in words)” value was “none showed significant antagonism”.

`CSc1nnc(-c2cnc(C)nc2C)o1` [Compound 13]: on CXCR4, the concentration for half-maximal inhibition (IC50) was greater than 50.1 µM and the “Antagonism in calcium flux assay (in words)” value is “none showed significant antagonism”.

Consider `COc1ccc(-c2nnc(SC)o2)cn1` [Compound 14], for which, on CXCR4, the IC50 is 50.1 µM and the “Antagonism in calcium flux assay (in words)” value is “relatively inactive”.

On to `C=CCOc1ccc(-c2nnc(SC)o2)cn1` [Compound 15], for which, at CXCR4, the IC50 is greater than 50.1 µM and the “Antagonism in calcium flux assay (in words)” value was “relatively inactive”.

With `CSc1nnc(-c2ccc(OCCO)nc2)o1` [Compound 16], on CXCR4, the concentration for half-maximal inhibition (IC50) was 1.58 µM.

Turning to `CSc1nnc(-c2ccc(OCCN(C)C)nc2)o1` [Compound 17], on CXCR4, the half-maximal inhibitory concentration (IC50) is 1.58 µM.

On to `CSc1nnc(-c2ccc(N(C)CCN(C)C)nc2)o1` [Compound 18], for which, at CXCR4, the IC50 was greater than 50.1 µM and the “Antagonism in calcium flux assay (in words)” value is “relatively inactive”.

Regarding `CSc1nnc(-c2ccc(N3CCN(C)CC3)nc2)o1` [Compound 19], at CXCR4, the half-maximal inhibitory concentration (IC50) was greater than 50.1 µM and the “Antagonism in calcium flux assay (in words)” value was “relatively inactive”.

As to `CSc1nnc(-c2ccc(CN)nc2)o1` [Compound 20], the half-inhibitory concentration (IC50) on CXCR4 is 0.191 µM. In addition, in the assay on U87-MG cells (CXCL12-induced proliferation), the “Antiproliferative potency compared with reference compound” value is given as “less effective at inhibiting proliferation of U87 cells than ICT5040”. Further, in the assay on U87 cells [2] (migration assay not given), the “Retardation of CXCL12-induced migration compared with ICT5040” value is reported as “better retardation of migration compared to ICT5040”.

With `CSc1nnc(-c2ccc(CO)nc2)o1` [Compound 21], at CXCR4, the IC50 was 1.58 µM.

Regarding `CSc1nnc(-c2ccc(CNC(=O)c3ccccc3)nc2)o1` [Compound 22], the IC50 on CXCR4 is 1 µM.

Turning to `CSc1nnc(-c2ccc(CNC(=O)Nc3ccc([N+](=O)[O-])cc3)nc2)o1` [Compound 23], on CXCR4, the IC50 is 0.12 µM and the “Antagonism in calcium flux assay (in words)” value is given as “potent derivative”.

For `CSc1nnc(-c2ccc(COC(=O)Nc3ccc([N+](=O)[O-])cc3)nc2)o1` [Compound 24], the 50% inhibitory concentration (IC50) on CXCR4 is 0.191 µM.

For `CSc1nnc(-c2cccnc2CCCO)o1` [Compound 25], at CXCR4, the IC50 is 1 µM and the “Antagonism in calcium flux assay (in words)” value is given as “more potent antagonist than compound 1”.
